Data on 1 compound can be found in article PMC6709486, “Safety, Tolerability, Pharmacokinetics, and Drug Interaction Potential of SPR741, an Intravenous Potentiator, after Single and Multiple Ascending Doses and When Combined with β-Lactam Antibiotics in Healthy Subjects” (Antimicrobial Agents and Chemotherapy, 2019).

Peptide text beside a SMILES is read from it.

The data set can be described thus: clinical. To be noted: human, in vivo, iv, 400 mg; for AUC(0-inf): AUC0-inf. The source says:
The drug-drug interaction study was a phase 1, single-center, multiarm, open-label, randomized, three-period crossover study. The objective was to evaluate the DDI potential and the PK of SPR741 coadministered with each of three partner antibiotics as well as the DDI and PK effects of three partner antibiotics administered alone and with SPR741. The study comprised a screening phase (day −28 to day −2), three treatment arms (day 1 to day 8 for each arm), and an end-of-study follow-up (day 9). Each subject participated in screening, one treatment arm, and the end-of-study follow-up. The maximum duration of participation for each subject was approximately 37 days. Subjects remained in the clinical unit from the day before dosing (day −1) to 24 h after the third and last dose period (day 8).
The DDI study consisted of three treatment arms with three dosing periods in each arm (days 1, 4, and 7). In random sequence, subjects received a single dose of study treatments with a 2-day washout period between each assigned treatment. In treatment arm 1, subjects received 400 mg of SPR741 i.v. over 1 h, 400 mg of SPR741 i.v. over 1 h plus 1.0 g of ceftazidime i.v. over 1 h, and 1.0 g of ceftazidime i.v. over 1 h. In treatment arm 2, subjects received 400 mg of SPR741 i.v. over 1 h, 400 mg of SPR741 i.v. over 1 h plus 4.5 g of piperacillin-tazobactam i.v. over 1 h, and 4.5 g of piperacillin-tazobactam i.v. over 1 h.
For both studies, maximum plasma concentration (Cmax), area under the concentration-time curve from time zero to the last measurable time point (AUC0-t), area under the concentration-time curve from time zero to infinity (AUC0-inf), time to maximum concentration (Tmax), terminal elimination rate constant (kel), terminal half-life (t1/2), terminal clearance (CL), and volume of distribution (V) were determined. PK parameters were determined using WinNonlin Phoenix, version 6.4.
For the SAD phase, blood samples were obtained predose (within 10 min), at 30 min following the start of infusion, at the end of infusion, and at 75, 90, 105, 120, and 150 min and 3, 4, 5, 6, 8, 10, 12, and 24 h following the start of infusion. For the MAD phase, blood was obtained predose (within 10 min), at 30 min following the start of infusion, at the end of infusion, and at 90 and 150 min and 3, 4, 5, 6, and 8 h following the start of infusion (day 1, first dose; day 14, last dose). Five additional blood samples were obtained at 10, 12, 24, 36, and 48 h following the start of infusion of the last dose (morning of day 14). For the DDI study, blood samples for determining plasma concentrations of SPR741 and each partner antibiotic were obtained predose (within −10 min), at 30 min, and at 1 h, 1 h 15 min, 1 h 30 min, 1 h 45 min, 2, 4, 8, 12, and 24 h postdose for each dose period. Plasma samples for drug concentration measurements were analyzed using a validated high-pressure liquid chromatography tandem mass spectrometry (HPLC-MS/MS) method. In brief, samples were spiked with a stable isotope-labeled internal standard and then extracted by protein precipitation before injection onto the HPLC-MS/MS system. Unique transitions were monitored for all test articles and internal standards. Plasma concentrations below the limit of quantitation were reported as 0.
In the SAD/MAD study, geometric means were calculated for AUC and Cmax values. Analyses using linear models were performed to assess dose proportionality (both single dose and multiple dose), time dependence, accumulation, and attainment of steady state (multiple dose). Dose proportionality was assessed using linear models for the SAD and MAD cohorts separately. […] Point estimates and 90% confidence intervals (CIs), using the residual mean square error obtained from the ANOVA, were constructed for the comparisons between treatments. The point and CI estimates were back-transformed to give estimates of the ratios (percentages) of the geometric LSMs and corresponding 90% CIs.

[1] abbreviates: geometric LSM, reference treatment.

Turning to `CC(=O)N[C@H](C(=O)N[C@H](CO)C(=O)N[C@H]1CCNC(=O)[C@H]([C@@H](C)O)NC(=O)[C@H](CCN)NC(=O)[C@H](CCN)NC(=O)[C@H](CC(C)C)NC(=O)[C@@H](Cc2ccccc2)NC(=O)[C@H](CCN)NC1=O)[C@@H](C)O` [SPR741] (HELM PEPTIDE1{[ac].T.[dS].[Dab].[Dab].[dF].L.[Dab].[Dab].T}$PEPTIDE1,PEPTIDE1,4:R3-10:R2$$$V2.0), the “AUC0-inf, geometric LSM, reference treatment” value is recorded as 96,800 h·ng/ml; the Tmax (usually the time at which the peak concentration occurs) is 1 h; the AUC(0-inf) – broadly, the area under the concentration-time curve extrapolated to infinity – amounted to 90300 ng·h/mL; the concentration peaked (Cmax) at 28100 ng/mL. Also, under setting [1], the AUC(0-inf) was determined as 79300 ng·h/mL and the concentration peaked (Cmax) at 28800 ng/mL. The compound further registered an AUC0-t (AUC0-t) of 89700 ng·h/mL. Further, the AUC (usually concentration integrated over time) (AUC0-τ, geometric LSM, reference treatment) came to 78700 ng·h/mL. Besides, the clearance (as a rule, the volume of plasma or blood freed of the substance per unit of time) (CL) was 75 mL/min. The Vd (as a rule, a proportionality between amount in the body and measured concentration, not a real space) (V) was found to be 20.6 L. For the same compound, under “t1/2”, the half-life – broadly, the time in which the quantity being followed falls by half – is 192 min.
